Results: US20100286219A1, “1, 3-Dihydroimidazoles for Treating Cardiovascular Disorders” (BIAL - PORTELA & CA S.A., priority 2007, published 2010)

T1: DβH (Rattus norvegicus, UniProt Q05754)
T1 construct: noradrenaline levels in the rat heart (left atrium and left ventricle) and brain (frontal and parietal cortex); from tissue; host or cells: rat heart (left atrium, left ventricle) and brain (frontal and parietal cortex), in vivo
T1 sequence (Q05754 1-620): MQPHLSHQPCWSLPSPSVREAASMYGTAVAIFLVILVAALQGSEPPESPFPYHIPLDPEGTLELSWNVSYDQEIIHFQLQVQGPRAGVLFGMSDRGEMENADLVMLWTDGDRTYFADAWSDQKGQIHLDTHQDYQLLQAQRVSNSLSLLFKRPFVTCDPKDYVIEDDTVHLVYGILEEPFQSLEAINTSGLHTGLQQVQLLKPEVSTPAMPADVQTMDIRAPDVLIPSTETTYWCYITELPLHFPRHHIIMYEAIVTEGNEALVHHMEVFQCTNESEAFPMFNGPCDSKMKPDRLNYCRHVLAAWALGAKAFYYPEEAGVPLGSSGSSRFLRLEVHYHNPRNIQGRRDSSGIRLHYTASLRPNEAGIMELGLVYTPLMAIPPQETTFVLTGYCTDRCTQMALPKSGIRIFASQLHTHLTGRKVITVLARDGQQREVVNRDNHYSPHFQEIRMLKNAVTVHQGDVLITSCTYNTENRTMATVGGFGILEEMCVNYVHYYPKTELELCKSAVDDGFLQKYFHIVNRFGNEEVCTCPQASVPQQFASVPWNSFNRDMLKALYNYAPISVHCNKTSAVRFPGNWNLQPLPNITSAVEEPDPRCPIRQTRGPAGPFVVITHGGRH

T2: human DβH (Homo sapiens, UniProt P09172)
T2 construct: endogenous in cells; host or cells: SK-N-SH cells
T2 sequence (P09172 1-617): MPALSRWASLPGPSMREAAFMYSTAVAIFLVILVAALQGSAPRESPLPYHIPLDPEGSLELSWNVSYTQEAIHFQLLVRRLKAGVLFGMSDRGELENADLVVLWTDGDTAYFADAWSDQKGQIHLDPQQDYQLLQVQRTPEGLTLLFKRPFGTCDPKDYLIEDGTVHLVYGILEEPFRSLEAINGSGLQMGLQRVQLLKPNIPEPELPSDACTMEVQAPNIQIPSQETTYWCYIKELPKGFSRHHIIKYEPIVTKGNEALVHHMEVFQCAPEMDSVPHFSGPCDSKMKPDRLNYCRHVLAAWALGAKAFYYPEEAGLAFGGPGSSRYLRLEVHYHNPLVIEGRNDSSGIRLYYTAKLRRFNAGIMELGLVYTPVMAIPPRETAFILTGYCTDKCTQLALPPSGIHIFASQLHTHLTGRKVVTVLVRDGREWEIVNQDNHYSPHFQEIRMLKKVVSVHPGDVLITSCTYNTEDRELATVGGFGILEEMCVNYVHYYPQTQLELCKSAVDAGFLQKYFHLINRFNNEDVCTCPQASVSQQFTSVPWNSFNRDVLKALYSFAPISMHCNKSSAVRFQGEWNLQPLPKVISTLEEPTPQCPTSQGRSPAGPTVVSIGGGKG

T3: DβH (Mus musculus, UniProt Q64237)
T3 construct: noradrenaline levels in the mouse left ventricle and brain parietal cortex 9 h after oral administration; from tissue; host or cells: mouse left ventricle and brain parietal cortex (in vivo)
T3 sequence (Q64237 1-622): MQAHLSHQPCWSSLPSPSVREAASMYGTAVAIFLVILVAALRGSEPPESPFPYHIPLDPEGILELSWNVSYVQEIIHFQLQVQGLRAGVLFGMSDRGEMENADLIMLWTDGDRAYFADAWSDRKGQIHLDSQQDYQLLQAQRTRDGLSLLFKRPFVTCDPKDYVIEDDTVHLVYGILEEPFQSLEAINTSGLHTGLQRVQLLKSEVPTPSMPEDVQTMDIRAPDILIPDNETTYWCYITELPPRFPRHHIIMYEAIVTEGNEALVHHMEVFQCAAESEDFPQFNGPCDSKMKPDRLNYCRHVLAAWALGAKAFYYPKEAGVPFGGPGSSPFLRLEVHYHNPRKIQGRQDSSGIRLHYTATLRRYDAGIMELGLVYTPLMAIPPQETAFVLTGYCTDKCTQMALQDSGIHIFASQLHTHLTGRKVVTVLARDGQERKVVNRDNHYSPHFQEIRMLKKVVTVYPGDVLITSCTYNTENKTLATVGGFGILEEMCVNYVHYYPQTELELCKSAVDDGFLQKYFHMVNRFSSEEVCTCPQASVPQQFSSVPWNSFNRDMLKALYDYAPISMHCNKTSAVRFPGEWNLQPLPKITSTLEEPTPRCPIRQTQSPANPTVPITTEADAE


Tests used:
[1] = target: T1, DβH; experiment: Noradrenaline tissue levels in rat heart and brain after oral administration; assay type: in vivo; conditions: for dose dependence of effect upon noradrenaline / time of maximum effect upon noradrenaline: rat (data not shown); for effect on noradrenaline tissue levels in brain parietal cortex and brain frontal cortex: 9 h after oral administration
Method: FIG. 3 is four graphs showing noradrenaline levels in the rat heart (left atrium and left ventricle) and brain (frontal and parietal cortex) 9 h after the oral administration of 4 or nepicastat 1. Columns are means of 5 determinations per group; vertical lines indicated S.E.M.

[2] = target: T2, human DβH; experiment: DβH activity in SK-N-SH cells (β-hydroxylation of dopamine to noradrenaline); assay type: cell-based; conditions: for IC50 against human DβH activity (in words): concentration-dependent decrease in β-hydroxylation of dopamine
[3] = target: T3, DβH; experiment: Noradrenaline tissue levels in mouse heart and brain after oral administration; assay type: in vivo; conditions: for Time of maximum effect (Tmax) for noradrenaline tissue reduction: mouse heart (left ventricle), 100 mg/kg oral; for recovery of initial noradrenaline tissue levels / duration of action (in words): mouse heart; for recovery of initial noradrenaline tissue levels: 100 mg/kg, at 24 h; for duration of action (in words): time course at 100 mg/kg; for dose at which maximal inhibitory effect was attained: mouse left ventricle noradrenaline, 9 h after administration; for effect on noradrenaline levels in left ventricle / effect on noradrenaline tissue levels in brain parietal cortex: mouse, 9 h after oral administration
Method: FIG. 1 is a graph showing the time-dependent decrease of noradrenaline levels in the left ventricle of mice treated orally with 100 mg/kg of 4 or nepicastat 1. Symbols are means of 5 determinations per group; vertical lines indicate S.E.M.
FIG. 2 is two graphs showing noradrenaline levels in the mouse left ventricle and brain parietal cortex 9 h after oral administration of 4 or nepicastat 1. Symbols are means of 5 determinations per group; vertical lines indicate S.E.M.
Time of maximum effect (Tmax) for noradrenaline tissue reduction by both 4 and 1 appears to be at 9 h post-dose (FIG. 1). Thereafter, noradrenaline tissue levels recover, reaching 50% recovery of initial tissue levels at 24 h.
For both 4 and 1, the maximal inhibitory effect was attained at a dose of 100 mg/kg.

[4] = substrate: NCCc1ccc(O)c(O)c1; experiment: cells, lysate or membranes; conditions: other: SK-N-SH cells, increasing concentrations of dopamine

Molecule | site of DβH inhibition, periphery versus brain (conclusion) ([1]; concluded from mouse and rat studies) | dose dependence of effect upon noradrenaline [1] | time of maximum effect upon noradrenaline [1] [h] | inhibitory effect upon noradrenaline levels in left atrium and left ventricle ([1]; rat, 100 mg/kg oral, 9 h, compared with 1 (100 mg/kg)) | effect on noradrenaline tissue levels in brain parietal cortex and brain frontal cortex ([1]; rat) | inhibition of DβH activity (in words) ([2]; as listed in Table 1, 5 μM) | IC50 against human DβH activity (in words) [2] | Time of maximum effect (Tmax) for noradrenaline tissue reduction [3] [h] | recovery of initial noradrenaline tissue levels [3] [%] | duration of action (in words) [3] | dose at which maximal inhibitory effect was attained [3] [mg/kg] | effect on noradrenaline levels in left ventricle [3] | effect on noradrenaline tissue levels in brain parietal cortex [3] | DβH activity, Mean ± SEM, % of control ([2]; compound 5 μM) | Km [4] [µM] | Vmax [4] [nmol mg protein-1 h-1]
Cl.NCCc1c[nH]c(=S)n1[C@H]1COc2c(F)cc(F)cc2C1 [Compound 4, (R)-5-(2-aminoethyl)-1-(6,8-difluorochroman-3-yl)-1,3-dihydroimidazole-2-thione hydrochloride] | exclusively in the periphery, being devoid of inhibitory effects in the brain | dependent on the dose administered | 9 | more pronounced than those elicited by 1 | failed to affect | markedly inhibit | low nM range | 9 | 50 | long acting | 100 | reduced noradrenaline levels in a dose-dependent manner | failed to affect |  |  | 
NCc1c[nH]c(=S)n1[C@H]1CCc2c(F)cc(F)cc2C1 [Nepicastat 1, nepicastat, reference compound] |  | dependent on the dose administered | 9 |  | produced a marked decrease |  | low nM range | 9 | 50 | long acting | 100 | reduced noradrenaline levels in a dose-dependent manner | produced a dose-dependent decrease | 0.0 ± 0.3 % of control |  | 
human DβH (Homo sapiens) (protein) MPALSRWASLPGPSMREAAFMYSTAVAIFLVILVAALQGSAPRESPLPYHIPLDPEGSLELSWNVSYTQEAIHFQLLVRRLKAGVLFGMSDRGELENADLVVLWTDGDTAYFADAWSDQKGQIHLDPQQDYQLLQVQRTPEGLTLLFKRPFGTCDPKDYLIEDGTVHLVYGILEEPFRSLEAINGSGLQMGLQRVQLLKPNIPEPELPSDACTMEVQAPNIQIPSQETTYWCYIKELPKGFSRHHIIKYEPIVTKGNEALVHHMEVFQCAPEMDSVPHFSGPCDSKMKPDRLNYCRHVLAAWALGAKAFYYPEEAGLAFGGPGSSRYLRLEVHYHNPLVIEGRNDSSGIRLYYTAKLRRFNAGIMELGLVYTPVMAIPPRETAFILTGYCTDKCTQLALPPSGIHIFASQLHTHLTGRKVVTVLVRDGREWEIVNQDNHYSPHFQEIRMLKKVVSVHPGDVLITSCTYNTEDRELATVGGFGILEEMCVNYVHYYPQTQLELCKSAVDAGFLQKYFHLINRFNNEDVCTCPQASVSQQFTSVPWNSFNRDVLKALYSFAPISMHCNKSSAVRFQGEWNLQPLPKVISTLEEPTPQCPTSQGRSPAGPTVVSIGGGKG |  |  |  |  |  |  |  |  |  |  |  |  |  |  | 20.6 ± 1.6 | 153.8±4.4
